Test results from PMC9786051, “Natural Product 2-Oxokolavenol Is a Novel FXR Agonist” (Molecules, 2022).

Assays:
[1] = biological target: T1, Farnesoid X receptor (FXR) (Homo sapiens, UniProt Q96RI1); test: AlphaScreen coactivator recruitment with purified FXR-LBD; luciferase reporter; assay type: biochemical
T1 construct: gene NR1H4; 6His-FXR-LBD (residues 243-472aa)
T1 sequence (Q96RI1 257-486): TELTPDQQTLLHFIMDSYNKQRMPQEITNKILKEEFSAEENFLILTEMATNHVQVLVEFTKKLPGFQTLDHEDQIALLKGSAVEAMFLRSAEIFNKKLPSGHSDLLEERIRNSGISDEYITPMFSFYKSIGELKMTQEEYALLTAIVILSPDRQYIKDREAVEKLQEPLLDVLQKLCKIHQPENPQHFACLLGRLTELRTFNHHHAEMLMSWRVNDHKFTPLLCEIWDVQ

[2] = biological target: T1, Farnesoid X receptor (FXR); test: AlphaScreen coactivator recruitment with purified FXR-LBD; also luciferase reporter (EC50 […]) and M265I/Y369F mutagenesis; assay type: binding

SMILES	AlphaScreen coactivator recruitment with purified FXR-LBD; luciferase reporter [1]	EC50 [2]
CC1=CCC[C@@H]2[C@@](C)(CC/C(C)=C/CO)[C@H](C)CC[C@@]12C [kolavenol]	motifs bound to FXR-LBD in response to 2-oxokolavenol, 2-oxokolavelool, kolavenol, or OCA in the AlphaScreen assay	–
CC1=CC(=O)C[C@@H]2[C@@](C)(CC/C(C)=C/CO)[C@H](C)CC[C@@]12C [2-oxokolavenol]	–	~3.7 µM
